Measured values: the NIST ThermoML archive (doi:10.1021/je050165t)

What was measured:
[1] = xn = mol fraction of the nth substance listed; settings: 101 kPa, Liquid
[2] = 101 kPa, Liquid

CO [methanol] + CCCCn1cc[n+](C)c1.F[P-](F)(F)(F)(F)F
[1], x2 = 0
Settings	mass density [kg/m3]	speed of sound [m/s]
298.15 K	786.531	1102.7
303.15 K	781.808	1086.4
308.15 K	777.066	1070.1
313.15 K	772.283	1054
318.15 K	767.474	1037.9

CO [methanol]
[2]
Settings	mass density [kg/m3]	speed of sound [m/s]
298.15 K	786.531	1102.7
303.15 K	781.808	1086.4
308.15 K	777.066	1070.1
313.15 K	772.283	1054
318.15 K	767.474	1037.9

CC#N [acetonitrile]
[2]
Settings	mass density [kg/m3]	speed of sound [m/s]
298.15 K	776.533	1278.6
303.15 K	771.116	1258.7
308.15 K	765.66	1238.7
313.15 K	760.162	1218.5
318.15 K	754.462	1198.3

CCCCn1cc[n+](C)c1.F[P-](F)(F)(F)(F)F [1-butyl-3-methylimidazolium hexafluorophosphate]
[2]
Settings	mass density [kg/m3]	speed of sound [m/s]
298.15 K	1366.66	1442.4
303.15 K	1362.4	1430.6
308.15 K	1358.3	1419
313.15 K	1354.19	1407.5
318.15 K	1350.08	1396.3

CCCCn1cc[n+](C)c1.F[P-](F)(F)(F)(F)F [1-butyl-3-methylimidazolium hexafluorophosphate] + CC#N
[1]
Settings	mass density, 298.15 K [kg/m3]	mass density, 303.15 K [kg/m3]	mass density, 308.15 K [kg/m3]	mass density, 313.15 K [kg/m3]	mass density, 318.15 K [kg/m3]	speed of sound, 298.15 K [m/s]	speed of sound, 303.15 K [m/s]	speed of sound, 308.15 K [m/s]	speed of sound, 313.15 K [m/s]	speed of sound, 318.15 K [m/s]
x1 = 0.0453	878.471	873.235	866.821	862.713	857.428	1293.5	1275.1	1256.7	1238.4	1220.2
x1 = 0.0935	959.103	954.02	948.924	943.817	938.706	1308.9	1291.8	1274.6	1257.5	1240.5
x1 = 0.2007	1085.08	1080.25	1075.41	1070.58	1065.76	1341.9	1326.2	1310.9	1295.8	1280.9
x1 = 0.2966	1159.89	1155.23	1150.56	1145.9	1141.24	1366.5	1352.2	1338.1	1324	1310
x1 = 0.4241	1228.44	1223.91	1219.4	1214.89	1210.4	1389	1375.6	1362.3	1349.2	1336.3
x1 = 0.514	1263.52	1258.71	1254.64	1250.22	1245.81	1402	1389.2	1376.5	1363.8	1351.2
x1 = 0.6186	1294.95	1290.95	1286.59	1282.25	1277.92	1413.5	1401	1388.7	1376.5	1364.4
x1 = 0.7285	1320.82	1316.59	1312.32	1308.06	1303.82	1423.9	1411.8	1399.9	1388	1376.2
x1 = 0.7886	1332.55	1328.3	1324.05	1319.81	1315.59	1427.9	1415.9	1404.1	1392.4	1380.8
x1 = 0.8925	1350.78	1346.33	1342.2	1338.05	1333.89	1436.5	1424.5	1412.6	1401	1389.5
x1 = 1	1366.66	1362.4	1358.3	1354.19	1350.08	1442.4	1430.6	1419	1407.5	1396.3
